Patent US10723741B1, “DNA polymerase IIIC inhibitors and use thereof” (Acurx Pharmaceuticals, LLC, priority 2018, dated 2020)
≈ marks a conversion by molar mass, not a printed value. Like-named read-outs stand apart in the source and are kept apart here.

What was measured:
Assay type in all cases: cell-based
[1] = system: Staphylococcus aureus NRS384 (MRSA); assay: Broth microdilution MIC, S. aureus NRS384 (MRSA); details: Staphylococcus aureus, broth microdilution, 37° C., 20 hours
Procedure, shortened: (§1)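 Broth microdilution in strain-specific test medium with ~5.0×10^5 cfu/ml inoculum, 1% DMSO and two-fold compound dilutions from 64 to 0.0625 μg/ml. Plates were held 20 hours at 37° C in ambient air. S. pneumoniae colonies were grown beforehand on blood agar in 5% CO2.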

[2] = system: Staphylococcus aureus ATCC 29213 (MSSA); assay: Broth microdilution MIC, S. aureus ATCC 29213 (MSSA); details: broth microdilution, 37° C., 20 hours, read-out: MIC S. aureus ATCC 29213 (MSSA)
Procedure, shortened: as §1

[3] = system: Enterococcus faecalis ATCC 29212; assay: Broth microdilution MIC, E. faecalis ATCC 29212; details: ATCC29212, broth microdilution, 37° C., 20 hours, read-out: MIC E. faecalis ATCC 29212
Procedure, shortened: as §1

[4] = system: Enterococcus faecium ATCC 700221 (VRE); assay: Broth microdilution MIC, E. faecium ATCC 700221 (VRE); details: Enterococcus faecium, broth microdilution, 37° C., 20 hours
Procedure, shortened: as §1

[5] = system: Streptococcus pneumoniae ATCC 49619; assay: Broth microdilution MIC, S. pneumoniae ATCC 49619; details: ATCC49619, broth microdilution, 37° C., 20 hours, read-out: MIC S. pneumoniae ATCC 49619
Procedure, shortened: as §1

[6] = system: Bacillus subtilis ATCC 6633; assay: Broth microdilution MIC, B. subtilis ATCC 6633; details: ATCC6633, broth microdilution, 37° C., 20 hours, read-out: MIC B. subtilis ATCC 6633
Procedure, shortened: as §1

[7] = system: Escherichia coli ATCC 25922; assay: Broth microdilution MIC, E. coli ATCC 25922 (MHIIB w & w/o 4 mM EDTA); details: broth microdilution, 37° C., 20 hours; for MIC: Escherichia coli, ATCC25922, without EDTA, read-out: MIC E. coli ATCC 25922; for MIC E. coli ATCC 25922 + 4 mM EDTA: with 4 mM EDTA
Procedure, shortened: as §1

[8] = read-out: MIC E. faecium ATCC 700221 (VRE)

Structure (SMILES) | MIC ([1]; read-out: MIC NRS 384 (MRSA)) [µg/mL] | MIC [2] [µg/mL] | MIC [3] [µg/mL] | MIC [4, 8] [µg/mL] | MIC [5] [µg/mL] | MIC [6] [µg/mL] | MIC [7] [µg/mL] | MIC E. coli ATCC 25922 + 4 mM EDTA [7] [µg/mL] | MIC ([1]; MHIIB, read-out: MIC against S. aureus NRS 384 (MRSA)) [µg/mL] | MIC ([4]; MHIIB, read-out: MIC against E. faecium ATCC 700221 (VRE)) [µg/mL]
O=C(NCCn1ncc2nc(NCc3ccc(Cl)c(Cl)c3)[nH]c(=O)c21)c1cc(Cl)nnc1O [Compound 83, 6-chloro-N-(2-(5-((3,4-dichlorobenzyl)amino)-7-oxo-6,7-dihydro-1H-pyrazolo[4,3-d]pyrimidin-1-yl)ethyl)-3-hydroxypyridazine-4-carboxamide] | > 64 | > 64 | > 64 | > 64 | 8 (≈ 15.7 µM) | 64 (≈ 126 µM) | > 64 | >64 | – | –
O=C(NCCn1ncc2nc(NCc3ccc(Cl)c(Cl)c3)[nH]c(=O)c21)c1cc(O)nnc1Cl [Compound 84, 3-chloro-N-(2-(5-((3,4-dichlorobenzyl)amino)-7-oxo-6,7-dihydro-1H-pyrazolo[4,3-d]pyrimidin-1-yl)ethyl)-6-hydroxypyridazine-4-carboxamide] | 64 (≈ 126 µM) | 64 (≈ 126 µM) | 64 (≈ 126 µM) | 32 (≈ 62.8 µM) | 16 (≈ 31.4 µM) | 64 (≈ 126 µM) | > 64 | >64 | – | –
CN(CCn1ncc2nc(NCc3ccc(Cl)c(Cl)c3)[nH]c(=O)c21)C(=O)c1cc(Cl)nnc1Cl [Compound 85, 3,6-dichloro-N-(2-(5-((3,4-dichlorobenzyl)amino)-7-oxo-6,7-dihydro-1H-pyrazolo[4,3-d]pyrimidin-1-yl)ethyl)-N-methylpyridazine-4-carboxamide] | 8 (≈ 14.8 µM) | 8 (≈ 14.8 µM) | 8 (≈ 14.8 µM) | 4 (≈ 7.38 µM) | 8 (≈ 14.8 µM) | 4 (≈ 7.38 µM) | > 64 | 16 | – | –
O=C(NCCn1ncc2nc(NCc3ccc(Cl)c(Cl)c3)[nH]c(=O)c21)c1cnoc1 [Compound 86, N-(2-(5-((3,4-dichlorobenzyl)amino)-7-oxo-6,7-dihydro-1H-pyrazolo[4,3-d]pyrimidin-1-yl)ethyl)isoxazole-4-carboxamide] | > 64 | > 64 | > 64 | > 64 | > 64 | > 64 | > 64 | >64 | – | –
CN(CCn1ncc2nc(NCc3ccc(Cl)c(Cl)c3)[nH]c(=O)c21)C(=O)c1cc(O)nnc1Cl [Compound 87, 3-chloro-N-(2-(5-((3,4-dichlorobenzyl)amino)-7-oxo-6,7-dihydro-1H-pyrazolo[4,3-d]pyrimidin-1-yl)ethyl)-6-hydroxy-N-methylpyridazine-4-carboxamide] | > 64 | 64 (≈ 122 µM) | 32 (≈ 61.1 µM) | 32 (≈ 61.1 µM) | 8 (≈ 15.3 µM) | 64 (≈ 122 µM) | > 64 | >64 | – | –
O=c1[nH]c(NCc2ccc(Cl)c(Cl)c2)nc2cnn(CCOCCO)c12 [Compound 88, 5-((3,4-dichlorobenzyl)amino)-1-(2-(2-hydroxyethoxy)ethyl)-1H-pyrazolo[4,3-d]pyrimidin-7(6H)-one] | 4 (≈ 10 µM) | 4 (≈ 10 µM) | 4 (≈ 10 µM) | 2 (≈ 5.02 µM) | 2 (≈ 5.02 µM) | 2 (≈ 5.02 µM) | > 64 | >64 | – | –
CCCCOCCOCCOCCn1ncc2nc(NCc3ccc(Cl)c(Cl)c3)[nH]c(=O)c21 [Compound 95, 1-(2-(2-(2-Butoxyethoxy)ethoxy)ethyl)-5-((3,4-dichlorobenzyl)amino)-1H-pyrazolo[4,3-d]pyrimidin-7(6H)-one] | 4 (≈ 8.03 µM) | 4 (≈ 8.03 µM) | 16 (≈ 32.1 µM) | 4 (≈ 8.03 µM) | 8 (≈ 16.1 µM) | 2 (≈ 4.01 µM) | > 64 | >64 | – | –

The next lines start with the values.

MIC ([1]; read-out: MIC NRS 384 (MRSA)) [µg/mL] | MIC [2] [µg/mL] | MIC [3] [µg/mL] | MIC [4, 8] [µg/mL] | MIC [5] [µg/mL] | MIC [6] [µg/mL] | MIC [7] [µg/mL] | MIC E. coli ATCC 25922 + 4 mM EDTA [7] [µg/mL] | MIC ([1]; MHIIB, read-out: MIC against S. aureus NRS 384 (MRSA)) [µg/mL] | MIC ([4]; MHIIB, read-out: MIC against E. faecium ATCC 700221 (VRE)) [µg/mL] | Structure (SMILES)
2 (≈ 5.23 µM) | 4 (≈ 10.5 µM) | 4 (≈ 10.5 µM) | 1 (≈ 2.62 µM) | 2 (≈ 5.23 µM) | 1 (≈ 2.62 µM) | > 64 | 64 | – | – | O=c1[nH]c(NCc2ccc(Cl)c(Cl)c2)nc2cnn(CCCCO)c12 [Compound 89, 5-((3,4-Dichlorobenzyl)amino)-1-(4-hydroxybutyl)-1H-pyrazolo[4,3-d]pyrimidin-7(6H)-one]
1 | 2 | 2 | 1 | 2 | 0.5 | > 64 | >64 | ≤ 1 | ≤ 1 | CC(=O)OCCCCn1ncc2nc(NCc3ccc(Cl)c(Cl)c3)[nH]c(=O)c21 [Compound 90, 4-(5-((3,4-Dichlorobenzyl)amino)-7-oxo-6,7-dihydro-1H-pyrazolo[4,3-d]pyrimidin-1-yl)butyl acetate]
2 (≈ 4.91 µM) | 4 (≈ 9.82 µM) | 4 (≈ 9.82 µM) | 2 (≈ 4.91 µM) | 4 (≈ 9.82 µM) | 1 (≈ 2.46 µM) | > 64 | 32 | – | – | O=c1[nH]c(NCc2ccc(Cl)c(Cl)c2)nc2cnn(Cc3nccs3)c12 [Compound 91, 5-((3,4-Dichlorobenzyl)amino)-1-(thiazol-2-ylmethyl)-1H-pyrazolo[4,3-d]pyrimidin-7(6H)-one]
4 (≈ 10.2 µM) | 4 (≈ 10.2 µM) | 4 (≈ 10.2 µM) | 2 (≈ 5.11 µM) | 4 (≈ 10.2 µM) | 2 (≈ 5.11 µM) | > 64 | 8 | – | – | O=c1[nH]c(NCc2ccc(Cl)c(Cl)c2)nc2cnn(Cc3cocn3)c12 [Compound 92, 5-((3,4-Dichlorobenzyl)amino)-1-(oxazol-4-ylmethyl)-1H-pyrazolo[4,3-d]pyrimidin-7(6H)-one]
16 (≈ 39.3 µM) | 8 (≈ 19.6 µM) | 8 (≈ 19.6 µM) | 4 (≈ 9.82 µM) | 2 (≈ 4.91 µM) | 4 (≈ 9.82 µM) | > 64 | 64 | – | – | O=C1CCC(Cn2ncc3nc(NCc4ccc(Cl)c(Cl)c4)[nH]c(=O)c32)N1 (centres unmarked) [Compound 93, 5-((3,4-Dichlorobenzyl)amino)-1-((5-oxopyrrolidin-2-yl)methyl)-1H-pyrazolo[4,3-d]pyrimidin-7(6H)-one]
16 (≈ 38 µM) | 16 (≈ 38 µM) | 16 (≈ 38 µM) | 4 (≈ 9.49 µM) | 4 (≈ 9.49 µM) | 8 (≈ 19 µM) | > 64 | >64 | – | – | O=C1CCCN1CCn1ncc2nc(NCc3ccc(Cl)c(Cl)c3)[nH]c(=O)c21 [Compound 94, 5-((3,4-Dichlorobenzyl)amino)-1-(2-(2-oxopyrrolidin-1-yl)ethyl)-1H-pyrazolo[4,3-d]pyrimidin-7(6H)-one]
> 64 | > 64 | > 64 | 64 (≈ 141 µM) | 64 (≈ 141 µM) | > 64 | > 64 | 32 | – | – | O=c1[nH]c(NCc2ccc(Cl)c(Cl)c2)nc2cnn(C[C@H]3NC[C@H](O)[C@@H](O)[C@@H]3O)c12 [Compound 96, 5-((3,4-Dichlorobenzyl)amino)-1-(((2R,3R,4R,5 S)-3,4,5-trihydroxypiperidin-2-yl)methyl)-1H-pyrazolo[4,3-d]pyrimidin-7(6H)-one]
8 (≈ 19.8 µM) | 8 (≈ 19.8 µM) | > 64 | 8 (≈ 19.8 µM) | 4 (≈ 9.89 µM) | 8 (≈ 19.8 µM) | > 64 | >64 | – | – | Cn1ccnc1Cn1ncc2nc(NCc3ccc(Cl)c(Cl)c3)[nH]c(=O)c21 [Compound 97, 5-((3,4-Dichlorobenzyl)amino)-1-((1-methyl-1H-imidazol-2-yl)methyl)-1H-pyrazolo[4,3-d]pyrimidin-7(6H)-one]
